Measurements taken from patent US10022376B2 (Pfizer Inc., priority 2014, dated 2018).
Counter-ions that a name gives are not always drawn. Values belong to the compound of their own block, whether it stands above or below them.

Experiments:
JAK2 = JAK2 (Homo sapiens (Human), UniProt O60674); test: JAK Caliper Enzyme Assay at 1 mM ATP (JAK2); format: biochemical; conditions: Caliper assay at 1 mM ATP
JAK3 = JAK3 (Homo sapiens (Human), UniProt P52333); test: JAK Caliper Enzyme Assay at 1 mM ATP (JAK3); format: biochemical; conditions: Caliper assay at 1 mM ATP
JAK1 = JAK1 (Homo sapiens (Human), UniProt P23458); test: JAK Caliper Enzyme Assay at 1 mM ATP (JAK1); format: biochemical; conditions: Caliper assay at 1 mM ATP
TYK2 = TYK2 (Homo sapiens (Human), UniProt P29597); test: JAK Caliper Enzyme Assay at 1 mM ATP (TYK2); format: biochemical; conditions: Caliper assay at 1 mM ATP
[1] = test system: rhIFNγ stimulated STAT-3 phosphorylation in the A549 human epithelial cell line; test: A549 Cell Assay: Inhibition of pSTAT3; format: cell-based; conditions: A549 cells
Summary of the method: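 Percent inhibition of STAT3 Tyr705 phosphorylation was measured by MSD immunoassay of cell lysates. A549 cells were given compound for 1 h at 37° C (final 0.3 nM to 10 μM, 0.1% DMSO, in 0.2% BSA DMEM), followed by 30 min of rhIFNγ stimulation at 20 ng/mL final. Unstimulated DMSO wells served as background.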

Chain of JAK3 (P52333 whole entry): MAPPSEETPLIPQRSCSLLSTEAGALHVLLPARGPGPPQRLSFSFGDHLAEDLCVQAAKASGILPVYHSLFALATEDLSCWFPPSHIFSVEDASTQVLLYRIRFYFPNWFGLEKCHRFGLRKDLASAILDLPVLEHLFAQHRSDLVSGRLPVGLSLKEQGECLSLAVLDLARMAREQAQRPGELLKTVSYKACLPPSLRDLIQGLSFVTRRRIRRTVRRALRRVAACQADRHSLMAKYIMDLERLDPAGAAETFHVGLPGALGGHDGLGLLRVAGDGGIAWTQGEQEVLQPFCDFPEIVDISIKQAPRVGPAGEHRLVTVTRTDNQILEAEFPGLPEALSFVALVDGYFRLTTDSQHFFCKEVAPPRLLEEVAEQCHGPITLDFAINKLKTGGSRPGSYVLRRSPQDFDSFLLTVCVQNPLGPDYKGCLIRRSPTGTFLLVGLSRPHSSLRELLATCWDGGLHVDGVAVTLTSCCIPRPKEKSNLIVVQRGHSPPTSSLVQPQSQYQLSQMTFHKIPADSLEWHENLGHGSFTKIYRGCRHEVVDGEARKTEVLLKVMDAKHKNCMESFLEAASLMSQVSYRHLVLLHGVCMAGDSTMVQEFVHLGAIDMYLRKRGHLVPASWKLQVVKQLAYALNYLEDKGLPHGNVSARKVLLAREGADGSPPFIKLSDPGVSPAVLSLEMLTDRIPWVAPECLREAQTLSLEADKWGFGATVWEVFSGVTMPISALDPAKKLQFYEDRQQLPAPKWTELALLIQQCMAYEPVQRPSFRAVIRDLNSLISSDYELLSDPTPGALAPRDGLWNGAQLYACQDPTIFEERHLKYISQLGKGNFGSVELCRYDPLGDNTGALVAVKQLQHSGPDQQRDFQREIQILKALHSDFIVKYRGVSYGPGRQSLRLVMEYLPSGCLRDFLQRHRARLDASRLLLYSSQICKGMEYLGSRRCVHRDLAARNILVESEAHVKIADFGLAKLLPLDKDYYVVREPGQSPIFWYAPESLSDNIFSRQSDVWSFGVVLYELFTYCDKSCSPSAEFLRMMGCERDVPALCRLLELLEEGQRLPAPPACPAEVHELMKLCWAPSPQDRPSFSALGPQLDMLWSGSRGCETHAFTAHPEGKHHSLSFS
Chain of JAK1 (P23458 whole entry): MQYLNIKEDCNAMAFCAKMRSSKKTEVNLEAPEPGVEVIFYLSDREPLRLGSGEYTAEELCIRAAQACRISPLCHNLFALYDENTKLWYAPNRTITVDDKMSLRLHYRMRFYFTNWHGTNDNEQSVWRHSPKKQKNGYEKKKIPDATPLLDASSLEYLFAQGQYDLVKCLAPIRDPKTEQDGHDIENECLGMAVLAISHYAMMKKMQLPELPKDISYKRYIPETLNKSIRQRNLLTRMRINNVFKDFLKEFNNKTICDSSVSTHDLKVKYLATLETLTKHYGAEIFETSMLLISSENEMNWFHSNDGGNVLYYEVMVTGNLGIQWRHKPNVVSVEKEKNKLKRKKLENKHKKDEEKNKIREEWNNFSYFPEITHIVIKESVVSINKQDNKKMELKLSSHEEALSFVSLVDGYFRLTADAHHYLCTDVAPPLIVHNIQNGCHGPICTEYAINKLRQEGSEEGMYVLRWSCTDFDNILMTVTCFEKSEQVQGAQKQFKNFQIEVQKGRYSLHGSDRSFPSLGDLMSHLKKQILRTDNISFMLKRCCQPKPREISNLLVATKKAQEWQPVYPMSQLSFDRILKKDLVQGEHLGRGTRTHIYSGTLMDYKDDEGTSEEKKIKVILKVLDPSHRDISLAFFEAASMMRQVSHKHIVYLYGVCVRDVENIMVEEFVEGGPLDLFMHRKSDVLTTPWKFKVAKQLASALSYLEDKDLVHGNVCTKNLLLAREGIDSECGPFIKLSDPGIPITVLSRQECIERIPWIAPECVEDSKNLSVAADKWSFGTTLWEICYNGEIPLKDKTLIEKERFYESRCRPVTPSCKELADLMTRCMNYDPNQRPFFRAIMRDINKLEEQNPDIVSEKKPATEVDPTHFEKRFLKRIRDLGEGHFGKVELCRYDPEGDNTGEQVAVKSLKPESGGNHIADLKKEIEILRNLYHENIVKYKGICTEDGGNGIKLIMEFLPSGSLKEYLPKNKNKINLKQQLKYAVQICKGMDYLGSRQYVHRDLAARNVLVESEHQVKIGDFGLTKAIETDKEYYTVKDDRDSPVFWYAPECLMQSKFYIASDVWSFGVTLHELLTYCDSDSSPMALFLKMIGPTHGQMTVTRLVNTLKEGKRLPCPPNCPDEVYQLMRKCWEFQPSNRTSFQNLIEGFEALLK
Chain of JAK2 (O60674 whole entry): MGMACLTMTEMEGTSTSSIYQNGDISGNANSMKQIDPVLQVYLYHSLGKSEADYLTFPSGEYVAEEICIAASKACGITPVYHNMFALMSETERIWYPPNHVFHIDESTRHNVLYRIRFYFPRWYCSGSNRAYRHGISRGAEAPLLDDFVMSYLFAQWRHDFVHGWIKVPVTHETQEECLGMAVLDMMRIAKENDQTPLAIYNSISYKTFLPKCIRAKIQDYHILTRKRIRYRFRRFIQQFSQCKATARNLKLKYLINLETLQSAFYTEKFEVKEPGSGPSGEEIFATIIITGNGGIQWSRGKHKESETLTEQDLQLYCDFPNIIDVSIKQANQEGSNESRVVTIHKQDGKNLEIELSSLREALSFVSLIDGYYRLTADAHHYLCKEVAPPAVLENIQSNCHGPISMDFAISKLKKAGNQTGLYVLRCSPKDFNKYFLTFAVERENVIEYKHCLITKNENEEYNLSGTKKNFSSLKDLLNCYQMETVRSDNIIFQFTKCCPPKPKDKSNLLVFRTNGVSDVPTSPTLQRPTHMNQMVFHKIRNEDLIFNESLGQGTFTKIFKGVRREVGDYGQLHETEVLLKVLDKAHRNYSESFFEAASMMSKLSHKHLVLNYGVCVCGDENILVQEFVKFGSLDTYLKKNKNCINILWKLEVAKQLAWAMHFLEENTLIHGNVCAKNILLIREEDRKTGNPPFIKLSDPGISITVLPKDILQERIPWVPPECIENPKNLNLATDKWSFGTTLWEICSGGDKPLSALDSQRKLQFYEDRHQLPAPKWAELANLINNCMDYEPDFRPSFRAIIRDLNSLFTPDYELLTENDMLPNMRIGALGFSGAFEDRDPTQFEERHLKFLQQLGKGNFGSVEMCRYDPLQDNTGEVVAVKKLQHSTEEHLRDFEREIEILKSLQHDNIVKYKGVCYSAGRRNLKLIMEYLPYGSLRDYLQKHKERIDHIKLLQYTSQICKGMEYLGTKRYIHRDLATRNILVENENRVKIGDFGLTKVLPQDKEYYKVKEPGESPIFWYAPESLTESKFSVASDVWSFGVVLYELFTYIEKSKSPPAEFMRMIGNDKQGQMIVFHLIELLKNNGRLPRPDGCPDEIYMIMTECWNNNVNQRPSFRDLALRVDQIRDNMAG
Chain of TYK2 (P29597 whole entry): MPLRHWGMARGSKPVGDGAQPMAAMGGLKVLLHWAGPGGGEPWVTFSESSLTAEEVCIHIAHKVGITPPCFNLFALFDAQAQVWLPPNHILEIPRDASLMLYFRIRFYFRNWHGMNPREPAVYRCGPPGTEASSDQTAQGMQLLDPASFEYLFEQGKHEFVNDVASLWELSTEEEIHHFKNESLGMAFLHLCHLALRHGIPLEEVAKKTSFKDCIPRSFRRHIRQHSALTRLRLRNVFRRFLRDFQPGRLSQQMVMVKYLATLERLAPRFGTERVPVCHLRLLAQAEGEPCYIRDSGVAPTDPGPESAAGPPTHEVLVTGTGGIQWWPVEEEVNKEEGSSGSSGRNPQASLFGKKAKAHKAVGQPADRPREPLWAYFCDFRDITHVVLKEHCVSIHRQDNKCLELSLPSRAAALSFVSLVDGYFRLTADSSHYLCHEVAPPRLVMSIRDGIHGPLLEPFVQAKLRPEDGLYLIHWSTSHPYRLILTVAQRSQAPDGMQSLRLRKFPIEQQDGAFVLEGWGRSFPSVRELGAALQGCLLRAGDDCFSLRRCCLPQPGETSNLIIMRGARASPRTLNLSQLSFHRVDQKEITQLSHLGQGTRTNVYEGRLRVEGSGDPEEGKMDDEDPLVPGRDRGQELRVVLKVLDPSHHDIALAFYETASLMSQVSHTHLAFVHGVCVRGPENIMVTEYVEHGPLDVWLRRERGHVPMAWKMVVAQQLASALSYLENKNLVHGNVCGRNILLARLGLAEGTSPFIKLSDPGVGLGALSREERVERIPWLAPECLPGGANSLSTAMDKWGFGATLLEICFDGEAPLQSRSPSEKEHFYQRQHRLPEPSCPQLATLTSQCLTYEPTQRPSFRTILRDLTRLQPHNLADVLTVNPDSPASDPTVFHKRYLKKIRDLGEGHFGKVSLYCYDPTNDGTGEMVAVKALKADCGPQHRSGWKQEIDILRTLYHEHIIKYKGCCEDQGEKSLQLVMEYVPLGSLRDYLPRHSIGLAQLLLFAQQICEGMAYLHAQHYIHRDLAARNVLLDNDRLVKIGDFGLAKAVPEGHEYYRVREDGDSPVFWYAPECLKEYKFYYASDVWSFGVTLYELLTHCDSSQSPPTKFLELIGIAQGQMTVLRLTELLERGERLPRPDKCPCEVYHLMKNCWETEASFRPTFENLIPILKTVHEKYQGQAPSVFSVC

Compound: CCc1cc(O)ccc1-c1cc2[nH]ncc2c(N2CCC(S(=O)(=O)N(C)C)C2)n1 (racemic) [Example 126, 1-[6-(2-ethyl-4-hydroxyphenyl)-1H-pyrazolo[4,3-c]pyridin-4-yl]-N, N-dimethylpyrrolidine-3-sulfonamide (racemic)]
IC50 (JAK2): 23.5 nM | IC50 (JAK3): 35.1 nM | IC50 (JAK1): 8.1 nM | IC50 (TYK2): 668 nM

Compound: CNC(=O)c1n[nH]c2cc(-c3cc(F)c(O)cc3CC(F)(F)F)nc(NCc3c(F)cccc3N(C)S(C)(=O)=O)c12 [Example 18, 6-[5-fluoro-4-hydroxy-2-(2,2,2-trifluoroethyl)phenyl]-4-({2-fluoro-6-[methyl(methylsulfonyl)amino]benzyl}amino)-N-methyl-1H-pyrazolo[4,3-c]pyridine-3-carboxamide]
IC50 (JAK3): 73 nM | IC50 ([1]; Homo sapiens): 97 nM | IC50 (JAK1): 4 nM | IC50 (TYK2): 31 nM

Compound: CCNC(=O)c1n[nH]c2cc(-c3cc(F)c(O)cc3CC(F)(F)F)nc(NCc3nccnc3N(CC)S(C)(=O)=O)c12 [Example 46, N-ethyl-4-[({3-[ethyl(methylsulfonyl)amino]pyrazin-2-yl}methyl)amino]-6-[5-fluoro-4-hydroxy-2-(2,2,2-trifluoroethyl)phenyl]-1H-pyrazolo[4,3-c]pyridine-3-carboxamide]
IC50 (JAK3): 179 nM | IC50 (JAK1): 32.9 nM

Compound: CNC(=O)c1n[nH]c2cc(-c3cc(F)c(O)cc3CC(F)(F)F)nc(NCc3cc(O)ccc3N(C)S(C)(=O)=O)c12 [Example 50]
IC50 (JAK2): 10.7 nM | IC50 (JAK3): 47.4 nM | IC50 [1]: 321 nM | IC50 (TYK2): 10.5 nM

Compound: CN(c1ccc(O)cc1CNc1nc(-c2cc(F)c(O)cc2CC(F)(F)F)nc2[nH]nc(C(N)=O)c12)S(=O)(=O)c1ccccc1 [Example 108, 4-((2-(N-methylphenylsulfonamido)-5-hydroxybenzyl)amino)-6-(5-fluoro-4-hydroxy-2-(2,2,2-trifluoroethyl)phenyl)-1H-pyrazolo[3,4-d]pyrimidine-3-carboxamide]
IC50 ([1]; Homo sapiens): 1500 nM

Compound: CNC(=O)c1n[nH]c2nc(-c3cc(F)c(O)cc3CC(F)(F)F)nc(NCc3ccccc3N(C)S(=O)(=O)NC)c12 [Example 110, 6-(5-Fluoro-4-hydroxy-2-(2,2,2-trifluoroethyl)phenyl)-N-methyl-4-((2-(methyl(N-methylsulfamoyl)amino)benzyl)amino)-1H-pyrazolo[3,4-d]pyrimidine-3-carboxamide]
IC50 ([1]; Homo sapiens): > 10000 nM

Compound: CCc1cc(O)ccc1-c1cc2[nH]ncc2c(N2CCc3c(cccc3C(=O)NCc3ccccc3)C2)n1 [Example 117, N-benzyl-2-[6-(2-ethyl-4-hydroxyphenyl)-1H-pyrazolo[4,3-c]pyridin-4-yl]-1,2,3,4-tetrahydroisoquinoline-5-carboxamide formate]
IC50 (JAK3): 41.6 nM | IC50 (TYK2): 425 nM

Compound: CCc1cc(O)c(F)cc1-c1cc2[nH]ncc2c(N(CCc2ccc(OC)c(OC)c2)Cc2ccccc2N(C)S(C)(=O)=O)n1 [Example 129, N-[2-({[2-(3,4-dimethoxyphenyl)ethyl][6-(2-ethyl-5-fluoro-4-hydroxyphenyl)-1H-pyrazolo[4,3-c]pyridin-4-yl]amino}methyl)phenyl]-N-methylmethanesulfonamide hydrochloride]
IC50 ([1]; Homo sapiens): 62.4 nM

Compound: CCc1cc(O)c(F)cc1-c1cc2[nH]ncc2c(N(CCc2ccc(NS(C)(=O)=O)cc2)Cc2ccccc2N(C)S(C)(=O)=O)n1 [Example 130, N-[2-({[6-(2-ethyl-5-fluoro-4-hydroxyphenyl)-1H-pyrazolo[4,3-c]pyridin-4-yl](2-{4-[(methylsulfonyl)amino]phenyl}ethyl)amino}methyl)phenyl]-N-methylmethanesulfonamide hydrochloride]
IC50 (JAK3): 1360 nM | IC50 ([1]; Homo sapiens): 729 nM | IC50 (JAK1): 43.8 nM | IC50 (TYK2): 194 nM

Compound: CCc1cc(O)c(F)cc1-c1cc2[nH]ncc2c(NCc2ccccc2N(C)S(=O)(=O)CC)n1 [Example 135, N-[2-({[6-(2-ethyl-5-fluoro-4-hydroxyphenyl)-1H-pyrazolo[4,3-c]pyridin-4-yl]amino}methyl)-phenyl]-N-methylethanesulfonamide hydrochloride]
IC50 ([1]; Homo sapiens): 3.3 nM

Compound: CCc1cc(O)c(F)cc1-c1cc2[nH]ncc2c(NCc2ccccc2N(CC)S(=O)(=O)CC)n1 [Example 136, N-ethyl-N-[2-({[6-(2-ethyl-5-fluoro-4-hydroxyphenyl)-1H-pyrazolo[4,3-c]pyridin-4-yl]amino}-methyl)phenyl]ethanesulfonamide hydrochloride]
IC50 ([1]; Homo sapiens): 13.3 nM

The next lines start with the values.

IC50 (JAK2): 2.6 nM | IC50 (JAK3): 14.2 nM | IC50 ([1]; Homo sapiens): 5.4 nM | IC50 (TYK2): 4.8 nM
Compound: CCc1cc(O)c(F)cc1-c1cc2[nH]ncc2c(NCc2ccccc2N(CC)S(C)(=O)=O)n1 [Example 138, N-ethyl-N-[2-({[6-(2-ethyl-5-fluoro-4-hydroxyphenyl)-1H-pyrazolo[4,3-c]pyridin-4-yl]amino}-methyl)phenyl]methanesulfonamide]

IC50 (JAK1): 8.5 nM
Compound: CCCCN(c1ccccc1CNc1nc(-c2cc(F)c(O)cc2CC)cc2[nH]ncc12)S(C)(=O)=O [Example 139, N-butyl-N-[2-({[6-(2-ethyl-5-fluoro-4-hydroxyphenyl)-1H-pyrazolo[4,3-c]pyridin-4-yl]amino}-methyl)phenyl]methanesulfonamide]

IC50 ([1]; Homo sapiens): 14.9 nM
Compound: CN(c1ccccc1CNc1nc(-c2cc(F)c(O)cc2CC(F)(F)F)cc2[nH]ncc12)S(C)(=O)=O [Example 148, N-{2-[({6-[5-Fluoro-4-hydroxy-2-(2,2,2-trifluoroethyl)phenyl]-1H-pyrazolo[4,3-c]pyridin-4-yl}amino)methyl]phenyl}-N-methylmethanesulfonamide]

IC50 ([1]; Homo sapiens): 133 nM
Compound: Oc1cc(CC(F)(F)F)c(-c2nc(NCC3CC3)c3cn[nH]c3n2)cc1F [Example 151, 4-{4-[(cyclopropylmethyl)amino]-1H-pyrazolo[3,4-d]pyrimidin-6-yl}-2-fluoro-5-(2,2,2-trifluoroethyl)phenol]

IC50 ([1]; Homo sapiens): 133 nM
Compound: Oc1cc(CC(F)(F)F)c(-c2nc(NCCC3CC3)c3cn[nH]c3n2)cc1F [Example 152, 4-{4-[(2-cyclopropylethyl)amino]-1H-pyrazolo[3,4-d]pyrimidin-6-yl}-2-fluoro-5-(2,2,2-trifluoroethyl)phenol]

IC50 [1]: 30.1 nM
Compound: CCc1cc(O)c(F)cc1-c1nc(NCc2ccccc2N(C)S(C)(=O)=O)c2cn[nH]c2n1 [Example 155, N-[2-({[6-(2-Ethyl-5-fluoro-4-hydroxyphenyl-1H-pyrazolo[3,4-d]pyrimidin-4-yl]amino}methyl)phenyl]-N-methylmethanesulfonamide hydrochloride]

IC50 [1]: 72.4 nM
Compound: CCc1cc(O)cc(C)c1-c1cc2[nH]ncc2c(NCc2ccccc2N(C)S(C)(=O)=O)n1 [Example 156]

IC50 ([1]; Homo sapiens): 26.2 nM
Compound: CCc1cc(O)c(F)cc1-c1cc2[nH]nc(-c3ncc[nH]3)c2c(NCc2ccccc2N(C)S(C)(=O)=O)n1 [Example 157, N-[2-({[6-(2-Ethyl-5-fluoro-4-hydroxyphenyl)-3-(1H-imidazol-2-yl)-1H-pyrazolo[4,3-c]pyridin-4-yl]amino}methyl)phenyl]-N-methylmethanesulfonamide]

IC50 [1]: 31.3 nM
Compound: CCc1cc(O)c(F)cc1-c1cc2[nH]nc(-c3nc(C)c(C)[nH]3)c2c(NCc2ccccc2N(C)S(C)(=O)=O)n1 [Example 158]

IC50 ([1]; Homo sapiens): 18.7 nM
Compound: CCc1cc(O)c(F)cc1-c1cc2[nH]nc(-c3nc(C)c[nH]3)c2c(NCc2ccccc2N(C)S(C)(=O)=O)n1 [Example 159, N-[2-({[6-(2-Ethyl-5-fluoro-4-hydroxyphenyl)-3-(4-methyl-1H-imidazol-2-yl)-1H-pyrazolo[4,3-c]pyridin-4-yl]amino}methyl)phenyl]-N-methylmethanesulfonamide]

IC50 ([1]; Homo sapiens): 20 nM
Compound: CCc1cc(O)c(F)cc1-c1cc2[nH]nc(-n3cccn3)c2c(NCc2ccccc2N(C)S(C)(=O)=O)n1 [Example 162, N-[2-({[6-(2-Ethyl-5-fluoro-4-hydroxyphenyl)-3-(1H-pyrazol-1-yl)-1H-pyrazolo[4,3-c]pyridin-4-yl]amino}methyl)phenyl]-N-methylmethanesulfonamide]

IC50 ([1]; Homo sapiens): 98.6 nM
Compound: CN(c1ccccc1CNc1nc(-c2cc(F)c(O)cc2CC(F)(F)F)cc2[nH]nc(-n3cccn3)c12)S(C)(=O)=O [Example 163, N-{2-[({6-[5-Fluoro-4-hydroxy-2-(2,2,2-trifluoroethyl)phenyl]-3-(1H-pyrazol-1-yl)-1H-pyrazolo[4,3-c]pyridin-4-yl}amino)methyl]phenyl}-N-methylmethanesulfonamide]

IC50 ([1]; Homo sapiens): > 10000 nM
Compound: CN(c1ccc(O)cc1CNc1nc(-c2cc(F)c(O)cc2CC(F)(F)F)nc2[nH]nc(-c3nnc(C4CCN(C(N)=O)CC4)[nH]3)c12)S(C)(=O)=O [Example 167, 4-(5-{6-[5-Fluoro-4-hydroxy-2-(2,2,2-trifluoroethyl)phenyl]-4-({5-hydroxy-2-[methyl(methylsulfonyl)amino]benzyl}amino)-1H-pyrazolo[3,4-d]pyrimidin-3-yl}-4H-1,2,4-triazol-3-yl)piperidine-1-carboxamide]

IC50 ([1]; Homo sapiens): 1330 nM
Compound: CN(c1ccccc1CNc1nc(-c2cc(F)c(O)cc2CC(F)(F)F)nc2[nH]nc(-c3nnc(C4CCN(C(=O)CN5CCCC5)CC4)[nH]3)c12)S(C)(=O)=O [Example 168, N-(2-{[(6-[5-Fluoro-4-hydroxy-2-(2,2,2-trifluoroethyl)phenyl]-3-{5-[1-(pyrrolidin-1-ylacetyl)piperidin-4-yl]-4H-1,2,4-triazol-3-yl}-1H-pyrazolo[3,4-d]pyrimidin-4-yl)amino]methyl}phenyl)-N-methylmethanesulfonamide]

IC50 ([1]; Homo sapiens): 220 nM
Compound: CC(CO)CNc1nc(-c2cc(F)c(O)cc2CC(F)(F)F)nc2[nH]nc(-c3nc4c([nH]3)CCN(Cc3ccccc3)C4)c12 (stereo not shown) [Example 173, 4-(3-(5-Benzyl-4,5,6,7-tetrahydro-1H-imidazo[4,5-c]pyridin-2-yl)-4-((3-hydroxy-2-methylpropyl)amino)-1H-pyrazolo[3,4-d]pyrimidin-6-yl)-2-fluoro-5-(2,2,2-trifluoroethyl)phenol]
